pKi: −log10 of the molar value. *1 amine or outer side, *2 acyl side, *3 side chain or, on linkers, in order; H or OH if unused. Where a SMILES comes first, the peptide text is derived from it. CO = O=C([*:1])[*:2]
What was measured:
Human tryptase = details: cited from earlier work
[1] = Isoelectric focussing (PhastSystem); format: physicochemical
Description: a) SDS-PAGE and isoelectric focussing (IEF) SDS-PAGEs of the proteins were performed with 15-25% polyacrylamide gels following the procedure of Laemmli [Laemmli, 1970]. The gels were either self-prepared and run in a conventional apparatus or in the PhastSystem (Pharmacia, Sollentuna, Sweden). Isoelectric focussing was also done with the PhastSystem using the isoelectric focussing calibration kit pH 3-10.

Tryptase (human) = experiment: Inhibition of the amidolytic activity of tryptase / equilibrium dissociation constants (Ki); format: biochemical
Description: h) Inhibitory activity: During the purification procedure the inhibitor was followed by measurements of its effect on the amidolytic activity of tryptase. Therefore, samples were incubated with tryptase (0.59 nM) in 50 mM Tris/HCl (pH 7.6), 150 mM NaCl, 50 μg/ml bovine lung heparin, and 0.1% (w/v) bovine serum albumin for 25 min at 37° C. The assay was started by addition of the substrate tos-Gly-Pro-Arg-pNa at a final concentration of 0.1 mM. The released nitroaniline was monitored spectrometrically at 405 nm for 3.5 min using a UVIKON 930 photometer (Kontron; Eching, Germany).
k) Determination of equilibrium constants: To determine the specificity of the inhibitor, its effect on the amidolytic activity of various serine proteinases (see Tab. 5) was determined. […] The residual enzyme activity was measured after addition of a suitable substrate.
Equilibrium dissociation constants (Ki) for the complexes of the inhibitor with individual proteases were determined essentially as described by Bieth [Bieth, 1980]. Briefly, increasing concentrations of the inhibitor were incubated with a constant concentration of the enzyme; the time necessary to reach equilibration of the enzyme-inhibitor complex was determined for each protease in preliminary experiments. Substrate was then added, and the residual enzyme activity measured. […]

Compound	inhibition of tryptase (literature) (Human tryptase)	also measured
alpha1 -proteinase inhibitor: naturally occurring antiproteinase	not inhibited	
hirudin	not affected	
antithrombin III	not inhibited	
CC(=O)N[C@@H](CC(C)C)C(=O)N[C@@H](CC(C)C)C(=O)N[C@H](C=O)CCCNC(=N)N [leupeptin]		Ki values for the complexes with tryptase (literature) (Human tryptase): micromolar range
aprotinin	not affected	
CC(C)[C@H](NC(=O)[C@H](CCCNC(=N)N)NC(=O)N[C@@H](Cc1ccccc1)C(=O)O)C(=O)N[C@H](C=O)CCCNC(=N)N [antipain] ({Phe-CO}-Arg-Val-Arg-aldehyde)		Ki values for the complexes with tryptase (literature) (Human tryptase): micromolar range
rLDTI-C: recombinant form C inhibitor expressed in Saccharomyces cerevisiae with secretion vector pVT102U/alpha and strain S-78 (KKVCACPKILKPVCGSDGRTYANSCIARCNGVSIKSEGSCPTGILN)		isoelectric point [1]: > 10 pH; pKi (Tryptase (human); Ki for the inhibition of two of the four subunits of the tryptase-tetramer, substrate Tos-Gly-Pro-Arg-pNA, read-out: Ki (second Ki column)): 8.72; maximal inhibition of human tryptase (Tryptase (human); substrate tos-Gly-Pro-Arg-pNa): ~ 50%
alpha2 -macroglobulin: naturally occurring antiproteinase	not inhibited	
ecotin: proteinase inhibitor	not affected	
O=S(=O)(F)Cc1ccccc1 [phenylmethylsulfonyl fluoride]	inhibited	
C1 -esterase inhibitor: naturally occurring antiproteinase	not inhibited	
tosyl-L-lysine chloromethyl ketone	inhibited	

From patent publication US5972698A, “Tryptase inhibitor” (Novartis Corporation, priority 1993, dated 1999)
